Results on one compound are retold here after patent US4410514A, “GnRH Agonists” (The Salk Institute for Biological Studies, priority 1982, dated 1983).

In the test the test system is release of LH by the anterior pituitary in fish. The test is described as follows: in vivo salmon assay, radioimmunoassay for LH level in blood. The conditions noted are these: salmon of about 2 kg, about 10 μg injected per fish, blood taken about 2 hours after injection, same amount of mammalian GnRH as comparator. The procedure: The peptide is assayed in vivo using salmon having an average weight of about 2 kg, and each fish is injected with about 10 μg. Additional fish are injected with the same amount of mammalian GnRH. Both sets are then compared with controls. About 2 hours following injection, the salmon are sacrificed, and the blood withdrawn for specific radioimmunoassay for LH level.

Where a SMILES comes first, the peptide text is derived from it. [ ]: non-standard residue; d: D form. pGlu = O=C1CC[C@@H](C(=O)O)N1

For the compound `CCNC(=O)[C@@H]1CCCN1C(=O)[C@H](CC(C)C)NC(=O)[C@H](Cc1c[nH]c2ccccc12)NC(=O)[C@@H](C)NC(=O)[C@H](Cc1ccc(O)cc1)NC(=O)[C@H](CO)NC(=O)[C@H](Cc1c[nH]c2ccccc12)NC(=O)[C@H](Cc1c[nH]cn1)NC(=O)[C@@H]1CCC(=O)N1` [Peptide 1, pGlu--His--Trp--Ser--Tyr--D--Ala--Trp--Leu--Pro--NHCH2 CH3] ([pGlu]HWSY[dA]WLP-NHEt), the “potency in causing the release of LH by the anterior pituitary, compared with mammalian GnRH” value is given as “substantially more potent than mammalian GnRH”.
